Like-named read-outs stand apart in the source and are kept apart here. Values belong to the compound of their own block, whether it stands above or below them.
Assays:
[1] = system: primary cultured guinea-pig urinary bladder (GPB) cells; assay: Membrane hyperpolarization (MHP) assay, DiBAC(4)3 / FLIPR; type: cell-based; details: for EC50: concentration that elicits 50% of the maximal response for the test sample
Procedure, shortened: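 Primary smooth-muscle cells from male guinea-pig bladder, grown to confluence, loaded 30 min at 37° C with 5 μM DiBAC(4)3 in HEPES buffer pH 7.4. Fluorescence drop on FLIPR followed 25 min after compound; steady-state hyperpolarization normalized to 10 μM P1075 (100%), EC50 from four-parameter fit of five concentrations.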

[2] = system: tissue strips obtained from Landrace pig bladders; assay: Functional potassium channel opening activity in isolated bladder strips (field-stimulated twitch); details: for Index: ED50 for P1075 divided by ED50 for the test agonist in a given tissue, averaged; for EC50: amount of agent necessary to cause 50% of the agent's maximal response, read-out: ED50 (the source's name)
Procedure, shortened: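 Mucosa-free female Landrace pig bladder strips in Krebs Ringer bicarbonate (pH 7.4, 37° C., 0.004 mM propranolol), 1.0 g preload, field-stimulated at 0.05 Hz, 0.5 ms, 20 V for twitch. Cumulative concentration-response curves; maximal efficacy as % of P1075, ED50 fitted, potency index = P1075 ED50/test ED50 per tissue, averaged.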

[3] = Cavia porcellus, maximal steady-state hyperpolarization, normalized to response with 10 μM P1075 (100%)
[4] = Sus scrofa, maximal efficacy relative to P1075, field stimulation 0.05 Hz, 0.5 ms, 20 volts

SMILES: N#CN=C(Nc1cccc(F)c1)NC(NC(=O)c1ccc(Cl)cc1)c1ccsc1 (stereo not drawn) [Example 56, 4-chloro-N-[{[(cyanoimino)(3-fluoroanilino)methyl]amino}(3-thienyl)methyl]benzamide]
- melting point: 166 to 168 °C

SMILES: Cc1ccc(C(=O)NC(NC(=NC#N)Nc2ccc(Cl)nc2)C(C)(C)C)cc1 (stereo not drawn) [Example 55, N-(1-{[[(6-chloro-3-pyridinyl)amino](cyanoimino)methyl]amino}-2,2-dimethylpropyl)-4-methylbenzamide]
- melting point: 194 to 196 °C

SMILES: CC(C)(C)C(NC(=O)c1ccc(Cl)cc1)NC(=NC#N)Nc1cccc(C(F)(F)F)c1 (stereo not drawn) [Example 71, 4-chloro-N-[1-({(cyanoimino)[3-(trifluoromethyl)anilino]methyl}amino)-2,2-dimethylpropyl]benzamide]
- melting point: 184 to 186 °C

SMILES: CC(C)(C)C(NC(=O)c1ccc(Cl)cc1)NC(=NC#N)NCc1ccc(Cl)cc1 (stereo not drawn) [Example 79, 4-chloro-N-(1-{[[(4-chlorobenzyl)amino](cyanoimino)methyl]amino}-2,2-dimethylpropyl)benzamide]
- melting point: 173 to 175 °C

SMILES: CC(C)(C)C(NC(=O)c1ccc(Cl)cc1)NC(=NC#N)Nc1c(F)cccc1F (stereo not drawn) [Example 74, 4-chloro-N-(1-{[(cyanoimino)(2,6-difluoroanilino)methyl]amino}-2,2-dimethylpropyl)benzamide]
- melting point: 211 to 213 °C

SMILES: Cc1ccc(C(=O)NC(NC(=S)Nc2ccccc2C)C(F)(F)F)cc1 (stereo not drawn) [Example 2, 4-methyl-N-{2,2,2-trifluoro-1-[(2-toluidinocarbothioyl)amino]ethyl}benzamide]
- melting point: 210 to 211 °C

SMILES: CC(C)(C)C(NC(=O)c1ccc(Cl)cc1)NC(=NC#N)Nc1cc(F)ccc1F (stereo not drawn) [Example 73, 4-chloro-N-(1-{[(cyanoimino)(2,5-difluoroanilino)methyl]amino}-2,2-dimethylpropyl)benzamide]
- melting point: 196 to 198 °C

SMILES: Cc1ccc(C(=O)NC(NC(=NC#N)Nc2cccc(F)c2)C(C)(C)C)cc1 (stereo not drawn) [Example 53, N-(1-{[(cyanoimino)(3-fluoroanilino)methyl]amino}-2,2-dimethylpropyl)-4-methylbenzamide]
- melting point: 193 to 194 °C

SMILES: CC(C)(C)C(NC(=O)c1ccc(Cl)cc1)NC(=NC#N)NCc1ccccn1 (stereo not drawn) [Example 82, 4-chloro-N-[1-({(cyanoimino)[(2-pyridinylmethyl)amino]methyl}amino)-2,2-dimethylpropyl]benzamide]
- melting point: 184 to 185 °C

SMILES: CC(C)(C)C(NC(=O)c1ccc(Cl)cc1)NC(=NC#N)NCc1ccncc1 (stereo not drawn) [Example 81, 4-chloro-N-[1-({(cyanoimino)[(4-pyridinylmethyl)amino]methyl}amino)-2,2-dimethylpropyl]benzamide]
- melting point: 189 to 191 °C

SMILES: CC(C)(C)C(NC(=O)Nc1ccccc1F)NC(=O)c1ccc(Cl)cc1 (stereo not drawn) [Example 147, 4-chloro-N-(1-{[(2-fluoroanilino)carbonyl]amino}-2,2-dimethylpropyl)benzamide]
- melting point: 229 to 230 °C

SMILES: Cc1ccc(C(=O)NC(NC(=S)Nc2cccc(F)c2F)C(F)(F)F)cc1 (stereo not drawn) [Example 18, N-(1-{[(2,3-difluoroanilino)carbothioyl]amino}-2,2,2-trifluoroethyl)-4-methylbenzamide]
- EC50 ([1]; Cavia porcellus): 90 nM
- Emax [1, 3]: 123%
- Index [2]: 0.020
- EC50 ([2]; Sus scrofa): 8 µM
- Emax [2, 4]: 97%

SMILES: Cc1ccc(C(=O)NC(NC(=S)Nc2cccnc2)c2ccccc2)cc1 (stereo not drawn) [Example 34, 4-methyl-N-(phenyl{[(3-pyridinylamino)carbothioyl]amino}methyl)benzamide]
- EC50 ([1]; Cavia porcellus): 500 nM
- Emax [1, 3]: 80%
- Index [2]: 0.003
- EC50 ([2]; Sus scrofa): 23 µM
- Emax [2, 4]: 99%

SMILES: CC(C)(C)OC(=O)N1CCC[C@@H]1[C@@H](NC(=O)c1ccc(Cl)cc1)NC(=NC#N)Nc1cccnc1 [Example 98, Tert-butyl (2R)-2-((R)-[(4-chlorobenzoyl)amino]{[(cyanoimino)(3-pyridinylamino)methyl]amino}methyl)-1-pyrrolidinecarboxylate]
- EC50 ([1]; Cavia porcellus): 1100 nM
- Emax [1, 3]: 62%
- Index [2]: 0.004
- EC50 ([2]; Sus scrofa): 33 µM
- Emax [2, 4]: 30%

SMILES: Cc1ccc(C(=O)NC(NC(=S)Nc2cccc([N+](=O)[O-])c2)C(C)(C)C)cc1 (stereo not drawn) [Example 25, N-(2,2-dimethyl-1-{[(3-nitroanilino)carbothioyl]amino}propyl)-4-methylbenzamide]
- EC50 ([1]; Cavia porcellus): 70 nM
- Emax [1, 3]: 103%
- Index [2]: 0.078
- EC50 ([2]; Sus scrofa): 1 µM
- Emax [2, 4]: 100%

SMILES: Cc1ccc(C(=O)NC(NC(=S)Nc2ccc(F)cc2F)C(F)(F)F)cc1 (stereo not drawn) [Example 15, N-(1-{[(2,4-difluoroanilino)carbothioyl]amino}-2,2,2-trifluoroethyl)-4-methylbenzamide]
- EC50 ([1]; Cavia porcellus): 550 nM
- Emax [1, 3]: 70%
- Index [2]: 0.005
- EC50 ([2]; Sus scrofa): 28 µM
- Emax [2, 4]: 97%

Second part, led by results:

- melting point: 199 to 200 °C
SMILES: CC(C)(C)CC(NC(=O)c1ccc(Cl)cc1)NC(=NS(=O)(=O)c1ccccc1)Nc1cccnc1 (stereo not drawn) [Example 140, 4-chloro-N-(3,3-dimethyl-1-{[[(phenylsulfonyl)imino](3-pyridinylamino)methyl]amino}butyl)benzamide]

- melting point: 195 to 196 °C
SMILES: CC(C)(C)C(NC(=O)c1ccc(F)cc1)NC(=NC#N)Nc1cccnc1 (stereo not drawn) [Example 107, N-(1-{[(cyanoimino)(3-pyridinylamino)methyl]amino}-2,2-dimethylpropyl)-4-fluorobenzamide]

- melting point: 196 to 197 °C
SMILES: CC(C)(C)C(NC(=O)c1ccc(Cl)cc1)NC(=NS(=O)(=O)c1ccccc1)Nc1cccnc1 (stereo not drawn) [Example 139, 4-chloro-N-(2,2-dimethyl-1-{[[(phenylsulfonyl)imino](3-pyridinylamino)methyl]amino}propyl)benzamide]

- melting point: 185 to 186 °C
SMILES: CCCC(Cl)(Cl)C(NC(=O)c1ccc(Cl)cc1)NC(=C[N+](=O)[O-])Nc1cccnc1 (stereo not drawn) [Example 151, 4-chloro-N-(2,2-dichloro-1-{[2-nitro-1-(3-pyridinylamino)ethenyl]amino}pentyl)benzamide]

- melting point: 214 to 215 °C
SMILES: CC(Cl)(Cl)C(NC(=O)c1ccc(C(F)(F)F)cc1)NC(=NS(=O)(=O)C(F)(F)F)Nc1cccnc1 (stereo not drawn) [Example 191, N-{2,2-dichloro-1-[((3-pyridinylamino){[(trifluoromethyl)sulfonyl]imino}methyl)amino]propyl}-4-(trifluoromethyl)benzamide]

- melting point: 137 to 139 °C
SMILES: N#CN=C(Nc1cccnc1)NC(NC(=O)c1ccc(Cl)cc1)C1CC1 (stereo not drawn) [Example 54, 4-chloro-N-[{[(cyanoimino)(3-pyridinylamino)methyl]amino}(cyclopropyl)methyl]benzamide]

- melting point: 170 to 172 °C
SMILES: CC(Cl)(Cl)C(NC(=O)c1ccc(Cl)cc1)NC(=N[N+](=O)[O-])Nc1cccnc1 (stereo not drawn) [Example 137, 4-chloro-N-(2,2-dichloro-1-{[(nitroimino)(3-pyridinylamino)methyl]amino}propyl)benzamide]

- melting point: 160 to 161 °C
SMILES: CC(Cl)(Cl)C(NC(=O)c1cccc(Cl)c1)NC(=N[N+](=O)[O-])Nc1cccnc1 (stereo not drawn) [Example 138, 3-chloro-N-(2,2-dichloro-1-{[(nitroimino)(3-pyridinylamino)methyl]amino}propyl)benzamide]

- melting point: 208 to 210 °C
SMILES: N#CN=C(Nc1cccnc1)NC(NC(=O)c1ccc(I)cc1)C(Cl)(Cl)Cl (stereo not drawn) [Example 114, 4-iodo-N-(2,2,2-trichloro-1-{[(cyanoimino)(3-pyridinylamino)methyl]amino}ethyl)benzamide]

- melting point: 188 to 189 °C
SMILES: CC(C)(C)C(NC(=O)c1ccc(Cl)cc1)NC(=NC#N)NCc1cccnc1 (stereo not drawn) [Example 80, 4-chloro-N-[1-({(cyanoimino)[(3-pyridinylmethyl)amino]methyl}amino)-2,2-dimethylpropyl]benzamide]

- melting point: 189 to 190 °C
SMILES: COc1ccc(NC(=NC#N)NC(NC(=O)c2cccc(Cl)c2)C(C)(Cl)Cl)cn1 (stereo not drawn) [Example 182, 3-chloro-N-[2,2-dichloro-1-({(cyanoimino)[(6-methoxy-3-pyridinyl)amino]methyl}amino)propyl]benzamide]

- melting point: 185 to 186 °C
SMILES: COc1ccccc1NC(=NC#N)NC(NC(=O)c1ccc(Cl)cc1)C(C)(Cl)Cl (stereo not drawn) [Example 181, 4-chloro-N-(2,2-dichloro-1-{[(cyanoimino)(2-methoxyanilino)methyl]amino}propyl)benzamide]

- melting point: 183 to 185 °C
SMILES: N#CN=C(Nc1cccnc1)NC(NC(=O)c1cccc(Cl)c1)C(F)(F)C(F)(F)F (stereo not drawn) [Example 122, 3-chloro-N-(1-{[(cyanoimino)(3-pyridinylamino)methyl]amino}-2,2,3,3,3-pentafluoropropyl)benzamide]

- EC50 [1]: 4600 nM
- EC50 [2]: 14 µM
SMILES: Cc1ccc(C(=O)NC(NC(=NC#N)Nc2cccnc2)C(C)(C)C)cc1 (single isomer, unassigned; (-)) [Example 57, (−) N-(1-{[(cyanoimino)(3-pyridinylamino)methyl]amino}-2,2-dimethylpropyl)-4-methylbenzamide]
- Maximal Response (% P1075) ([1]; maximal steady-state hyperpolarization, normalized to response with 10 μM P1075 (100%)): 80 % P1075
- Index [2]: 0.007
- Efficacy (% P1075) ([2]; maximal efficacy relative to P1075, field stimulation 0.05 Hz, 0.5 ms, 20 volts): 85 % P1075

From US20020028836A1, “Potassium channel openers” (priority 2000, published 2002)
